We go through 1 compound from patent US12351556B2, “Pyridin-2(1H)one derivatives, their preparation and their use for the treatment of pain” (INSTITUT NATIONAL DE LA SANTE ET DE LA RECHERCHE MEDICALE …, priority 2019, dated 2025).

Read-outs that look alike come from different tables or passages of the source.

One assay deals with MSK1 (Homo sapiens (Human), UniProt O75582). Description: ICKP protein kinase panel screening. In kind it is biochemical. Particulars: duplicate assays, read-out: mean % residual activity. Here is the method:
(§1) FIG. 3 illustrates the human kinome. Compound 69 was evaluated at the International Center For Kinase Profiling (ICKP, Dundee, Scotland) toward a panel of 50 protein kinases that provide a representative sampling of the human kinome. The results were expressed as the mean percentage of residual activity at 10 μM concentration (duplicate assays). Small disks: ≥65%, larger disk: 19%. The black square indicates the kinome region containing protein kinases evaluated in a second screening (FIG. 4, Table 4). The tree was generated using the Kinome Render software, and the illustration reproduced courtesy of Cell Signaling Technology, Inc. (www.cellsignal.com) Chartier et al PeerJ 2013, 1:e126.
(§2) Results are expressed as the mean percentage of residual activity at 10 μM (Table 3) or 1 μM (Table 4). They are illustrated on FIGS. 3 and 4.
(§3) Studies were undertaken to identify the possible biological target(s) of compound 69. The activation in neurons of PK such as PKCγ, ERK or p38 MAPK can contribute to pain hypersensitivity. Therefore, it was decided to screen compound 69 toward a panel of 50 PKs that provide a representative sampling of the human kinome (FIG. 3, Table 3) (Biochem. J. 2007, 408, 297-315). In this panel, p38α MAPK was identified as the privileged target, with 19% of kinase residual activity at 10 μM compound concentration.

In another assay the target is CHK2 (Homo sapiens (Human), UniProt O96017). Description: ICKP protein kinase panel screening. In kind it is biochemical. The conditions noted are these: duplicate assays, read-out: mean % residual activity. Here is the method:
as §1, §2, §3

The target in another assay is JNK1 (Homo sapiens (Human), UniProt P45983). The experiment in a line: ICKP protein kinase panel screening. In kind it is biochemical. Particulars: duplicate assays, read-out: mean % residual activity. As for the experimental part: as §1
JNK1, sequence (P45983 whole entry): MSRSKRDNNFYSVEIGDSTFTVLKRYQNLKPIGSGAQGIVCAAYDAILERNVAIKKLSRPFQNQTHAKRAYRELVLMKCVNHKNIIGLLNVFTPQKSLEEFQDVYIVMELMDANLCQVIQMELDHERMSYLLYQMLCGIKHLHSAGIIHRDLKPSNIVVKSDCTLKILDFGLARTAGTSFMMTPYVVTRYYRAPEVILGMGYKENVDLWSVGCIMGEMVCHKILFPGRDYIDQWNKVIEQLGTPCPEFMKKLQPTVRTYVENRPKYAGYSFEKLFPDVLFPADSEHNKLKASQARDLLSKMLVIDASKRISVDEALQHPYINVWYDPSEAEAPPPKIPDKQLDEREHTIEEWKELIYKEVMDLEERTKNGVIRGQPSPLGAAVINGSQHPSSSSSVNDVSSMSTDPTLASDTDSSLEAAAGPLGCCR
(§4) FIG. 4 illustrates the studies carried out for compounds 67 and 69. Compounds 67 and 69 (FIG. 4B) were evaluated at the International Center For Kinase Profiling (ICKP, Dundee, Scotland) toward a panel of 13 protein kinases. The results (FIG. 4A) were expressed as the mean percentage of residual activity at 1 μM concentration (duplicate assays). Small disks: ≥90%, larger disk: 59%, for both compounds. The tree was generated using the Kinome Render software, and the illustration reproduced courtesy of Cell Signaling Technology, Inc. (www.cellsignal.com) Chartier et al PeerJ 2013, 1:e126.
as §2, §3
(§5) The selectivity of compound 69 was evaluated at 1 μM toward another panel containing all four p38 MAPK isoforms, ERK1, ERK2 as well as other protein kinases close to p38α MAPK in the kinome phylogenetic tree (FIG. 4, Table 4). […] Its IC50 toward p38α MAPK was determined, showing a value in the micromolar range (IC50=3.0±0.1 μM).

The target of a further assay is p38a MAPK (Homo sapiens (Human), UniProt Q16539). The experiment in a line: ICKP protein kinase panel screening. In kind it is biochemical. Particulars: duplicate assays, read-out: mean % residual activity. Here is the method: as §1, §4, §2, §3, §5
p38a MAPK, sequence (Q16539 whole entry): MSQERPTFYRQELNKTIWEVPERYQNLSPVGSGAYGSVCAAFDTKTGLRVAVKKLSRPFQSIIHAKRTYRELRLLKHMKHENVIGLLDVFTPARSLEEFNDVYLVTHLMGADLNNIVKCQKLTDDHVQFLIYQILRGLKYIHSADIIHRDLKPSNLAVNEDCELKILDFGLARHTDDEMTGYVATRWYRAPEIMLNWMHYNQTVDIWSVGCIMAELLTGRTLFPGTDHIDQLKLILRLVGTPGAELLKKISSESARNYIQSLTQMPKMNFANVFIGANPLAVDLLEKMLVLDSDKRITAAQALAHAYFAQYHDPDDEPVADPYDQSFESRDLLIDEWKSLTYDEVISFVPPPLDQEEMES
For another assay, the target named is p38α MAPK (Homo sapiens (Human), UniProt Q16539). The experiment in a line: p38 alpha IC50. In kind it is biochemical. Here is the method: as §3, §5
p38α MAPK, sequence (Q16539 whole entry): as above
The subject of another assay is CK2. The experiment in a line: ICKP protein kinase panel screening. Type of assay: biochemical, human. The conditions noted are these: 10 μM, duplicate assays. Here is the method: as §1, §2, §3
For another assay, the system named is AMPK (hum). The experiment in a line: ICKP protein kinase panel screening. Type of assay: biochemical, human. Particulars: 10 μM, duplicate assays. Here is the method: as §1, §2, §3
The subject of another assay is ROCK 2. The experiment in a line: ICKP protein kinase panel screening. Particulars: 10 μM, duplicate assays. Type of assay: biochemical, human. As for the experimental part: as §1, §2, §3
A further assay has as its target p38b MAPK (Homo sapiens (Human), UniProt Q15759). Description: ICKP protein kinase panel screening. In kind it is biochemical. Particulars: duplicate assays, read-out: mean % residual activity. Here is the method:
as §4, §2, §5

The next assay concerns the target JNK2 (Homo sapiens (Human), UniProt P45984). Description: ICKP protein kinase panel screening. In kind it is biochemical. Particulars: duplicate assays, read-out: mean % residual activity. As for the experimental part: as §4, §2, §5
A further assay addresses p38g MAPK (Homo sapiens (Human), UniProt P53778). Description: ICKP protein kinase panel screening. In kind it is biochemical. The conditions noted are these: duplicate assays, read-out: mean % residual activity. Here is the method: as §4, §2, §5
For the next assay, the target named is ERK1 (Homo sapiens (Human), UniProt P27361). Description: ICKP protein kinase panel screening. In kind it is biochemical. Particulars: duplicate assays, read-out: mean % residual activity. Here is the method: as §4, §2, §5
The target in a further assay is p38d MAPK (Homo sapiens (Human), UniProt O15264). The experiment in a line: ICKP protein kinase panel screening. In kind it is biochemical. The conditions noted are these: duplicate assays, read-out: mean % residual activity. Here is the method:
as §4, §2, §5

For another assay, the target named is ERK8 (Homo sapiens (Human), UniProt Q8TD08). Description: ICKP protein kinase panel screening. Type of assay: biochemical. Particulars: duplicate assays, read-out: mean % residual activity. As for the experimental part: as §4, §2, §5
ERK8, sequence (Q8TD08 whole entry): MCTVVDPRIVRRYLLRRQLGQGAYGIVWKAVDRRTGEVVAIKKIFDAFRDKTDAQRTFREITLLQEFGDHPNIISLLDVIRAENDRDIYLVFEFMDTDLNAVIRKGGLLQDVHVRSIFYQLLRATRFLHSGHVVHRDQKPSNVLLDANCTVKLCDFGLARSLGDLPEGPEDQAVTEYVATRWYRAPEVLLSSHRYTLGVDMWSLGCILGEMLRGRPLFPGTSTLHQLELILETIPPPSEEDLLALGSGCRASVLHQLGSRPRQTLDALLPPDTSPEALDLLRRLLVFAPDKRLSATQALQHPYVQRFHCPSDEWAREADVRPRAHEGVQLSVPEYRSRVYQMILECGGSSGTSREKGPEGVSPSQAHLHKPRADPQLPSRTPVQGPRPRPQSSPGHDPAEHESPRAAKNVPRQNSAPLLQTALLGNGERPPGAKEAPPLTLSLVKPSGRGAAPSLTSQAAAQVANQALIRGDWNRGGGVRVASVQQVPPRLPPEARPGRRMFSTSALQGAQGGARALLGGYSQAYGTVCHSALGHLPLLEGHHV
In the next assay the target is ERK5 (Homo sapiens (Human), UniProt Q13164). Description: ICKP protein kinase panel screening. In kind it is biochemical. The conditions noted are these: duplicate assays, read-out: mean % residual activity. Here is the method:
as §4, §2, §5

In the next assay the target is CDK2-Cyclin A (Homo sapiens (Human), UniProt P24941). Description: ICKP protein kinase panel screening. In kind it is biochemical. Particulars: duplicate assays, read-out: mean % residual activity. Here is the method:
as §4, §2, §5

In the next assay the target is ERK2 (Homo sapiens (Human), UniProt P28482). The experiment in a line: ICKP protein kinase panel screening. Type of assay: biochemical. Particulars: duplicate assays, read-out: mean % residual activity. Here is the method: as §4, §2, §5
ERK2, sequence (P28482 whole entry): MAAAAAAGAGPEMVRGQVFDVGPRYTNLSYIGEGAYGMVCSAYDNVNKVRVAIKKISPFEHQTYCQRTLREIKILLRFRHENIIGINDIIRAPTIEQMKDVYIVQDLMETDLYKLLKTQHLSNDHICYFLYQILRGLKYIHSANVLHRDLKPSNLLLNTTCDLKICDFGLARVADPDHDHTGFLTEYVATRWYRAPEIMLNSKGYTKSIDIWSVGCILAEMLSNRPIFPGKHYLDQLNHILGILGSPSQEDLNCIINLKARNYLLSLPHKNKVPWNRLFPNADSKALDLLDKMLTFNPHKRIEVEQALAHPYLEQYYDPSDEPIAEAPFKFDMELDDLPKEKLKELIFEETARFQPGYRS
In the next assay the target is CDK5 (Homo sapiens (Human), UniProt Q00535). The experiment in a line: ICKP protein kinase panel screening. Type of assay: biochemical. The conditions noted are these: duplicate assays, read-out: mean % residual activity. As for the experimental part: as §4, §2, §5
CDK5, sequence (Q00535 whole entry): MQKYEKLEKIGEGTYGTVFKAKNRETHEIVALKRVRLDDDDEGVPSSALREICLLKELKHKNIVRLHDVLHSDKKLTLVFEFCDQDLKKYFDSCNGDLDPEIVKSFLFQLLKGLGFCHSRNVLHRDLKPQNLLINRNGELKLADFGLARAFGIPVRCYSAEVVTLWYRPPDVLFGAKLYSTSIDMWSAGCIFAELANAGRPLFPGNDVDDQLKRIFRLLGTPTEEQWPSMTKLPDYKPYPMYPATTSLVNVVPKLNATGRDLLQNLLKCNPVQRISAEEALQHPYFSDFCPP
CDK5, sequence (Q15078 whole entry partner): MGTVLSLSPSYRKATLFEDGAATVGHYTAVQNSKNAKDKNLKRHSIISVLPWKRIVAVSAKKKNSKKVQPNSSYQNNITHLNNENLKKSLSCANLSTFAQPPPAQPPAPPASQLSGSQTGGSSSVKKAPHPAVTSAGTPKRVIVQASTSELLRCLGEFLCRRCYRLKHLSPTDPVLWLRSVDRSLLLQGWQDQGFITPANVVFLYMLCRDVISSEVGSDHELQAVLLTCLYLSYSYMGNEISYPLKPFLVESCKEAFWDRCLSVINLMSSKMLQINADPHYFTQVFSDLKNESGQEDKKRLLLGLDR
The next assay has as its target JNK3 (Homo sapiens (Human), UniProt P53779). The experiment in a line: ICKP protein kinase panel screening. Type of assay: biochemical. The conditions noted are these: duplicate assays, read-out: mean % residual activity. As for the experimental part:
as §4, §2, §5

JNK3, sequence (P53779 whole entry): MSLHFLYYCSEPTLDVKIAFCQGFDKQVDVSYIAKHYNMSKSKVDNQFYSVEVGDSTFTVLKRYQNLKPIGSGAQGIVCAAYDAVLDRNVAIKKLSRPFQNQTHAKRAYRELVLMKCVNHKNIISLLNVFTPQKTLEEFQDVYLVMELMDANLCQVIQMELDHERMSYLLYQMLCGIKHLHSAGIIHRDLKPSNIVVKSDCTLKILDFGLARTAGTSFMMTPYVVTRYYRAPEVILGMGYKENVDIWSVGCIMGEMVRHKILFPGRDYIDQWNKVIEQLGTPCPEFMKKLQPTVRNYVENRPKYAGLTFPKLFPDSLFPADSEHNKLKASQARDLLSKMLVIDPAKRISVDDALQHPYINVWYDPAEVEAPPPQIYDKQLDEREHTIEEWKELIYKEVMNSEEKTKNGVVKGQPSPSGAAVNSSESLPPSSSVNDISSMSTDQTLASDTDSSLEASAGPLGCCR
ERK5, sequence (Q13164 whole entry): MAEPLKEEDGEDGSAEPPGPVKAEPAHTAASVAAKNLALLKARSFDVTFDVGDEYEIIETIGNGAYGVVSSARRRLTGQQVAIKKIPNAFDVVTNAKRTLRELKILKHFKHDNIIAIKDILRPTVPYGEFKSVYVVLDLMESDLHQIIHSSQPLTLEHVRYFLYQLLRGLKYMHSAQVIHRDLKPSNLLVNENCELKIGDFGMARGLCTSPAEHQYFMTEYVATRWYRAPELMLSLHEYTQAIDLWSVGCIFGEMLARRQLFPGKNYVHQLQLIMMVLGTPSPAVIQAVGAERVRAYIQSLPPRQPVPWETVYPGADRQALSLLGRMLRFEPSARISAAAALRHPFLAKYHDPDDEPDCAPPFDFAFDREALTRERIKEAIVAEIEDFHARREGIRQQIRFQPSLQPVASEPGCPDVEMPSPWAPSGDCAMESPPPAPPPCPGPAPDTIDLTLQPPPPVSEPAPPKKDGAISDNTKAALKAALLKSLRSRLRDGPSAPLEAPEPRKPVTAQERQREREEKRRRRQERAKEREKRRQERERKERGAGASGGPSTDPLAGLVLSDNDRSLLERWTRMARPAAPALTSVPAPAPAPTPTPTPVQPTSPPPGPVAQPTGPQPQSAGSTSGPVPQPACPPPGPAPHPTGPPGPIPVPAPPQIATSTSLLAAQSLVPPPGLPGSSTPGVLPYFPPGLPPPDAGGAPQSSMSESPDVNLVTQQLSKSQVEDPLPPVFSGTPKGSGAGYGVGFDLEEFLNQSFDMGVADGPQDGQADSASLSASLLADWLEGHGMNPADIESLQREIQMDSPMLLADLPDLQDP
JNK2, sequence (P45984 whole entry): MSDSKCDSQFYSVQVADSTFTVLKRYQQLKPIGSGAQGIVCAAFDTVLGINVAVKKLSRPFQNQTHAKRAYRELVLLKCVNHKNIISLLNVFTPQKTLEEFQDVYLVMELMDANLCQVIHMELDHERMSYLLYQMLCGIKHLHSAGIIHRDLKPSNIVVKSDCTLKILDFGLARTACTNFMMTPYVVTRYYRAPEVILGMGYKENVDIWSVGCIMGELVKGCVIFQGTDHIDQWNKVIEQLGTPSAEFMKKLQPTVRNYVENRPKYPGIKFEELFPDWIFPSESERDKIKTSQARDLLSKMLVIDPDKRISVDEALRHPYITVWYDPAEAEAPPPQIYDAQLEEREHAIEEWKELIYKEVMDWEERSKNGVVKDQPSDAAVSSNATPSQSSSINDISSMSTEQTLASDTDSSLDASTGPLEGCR
p38d MAPK, sequence (O15264 whole entry): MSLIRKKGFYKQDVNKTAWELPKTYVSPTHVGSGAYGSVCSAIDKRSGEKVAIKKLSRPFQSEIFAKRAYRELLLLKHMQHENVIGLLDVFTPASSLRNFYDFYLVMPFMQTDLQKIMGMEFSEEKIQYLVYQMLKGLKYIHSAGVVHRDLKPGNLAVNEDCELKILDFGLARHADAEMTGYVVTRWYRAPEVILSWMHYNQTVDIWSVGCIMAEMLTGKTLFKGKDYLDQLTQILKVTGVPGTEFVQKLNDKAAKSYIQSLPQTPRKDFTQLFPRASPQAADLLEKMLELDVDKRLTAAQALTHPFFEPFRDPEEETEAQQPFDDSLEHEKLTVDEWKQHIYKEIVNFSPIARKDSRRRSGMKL
p38g MAPK, sequence (P53778 whole entry): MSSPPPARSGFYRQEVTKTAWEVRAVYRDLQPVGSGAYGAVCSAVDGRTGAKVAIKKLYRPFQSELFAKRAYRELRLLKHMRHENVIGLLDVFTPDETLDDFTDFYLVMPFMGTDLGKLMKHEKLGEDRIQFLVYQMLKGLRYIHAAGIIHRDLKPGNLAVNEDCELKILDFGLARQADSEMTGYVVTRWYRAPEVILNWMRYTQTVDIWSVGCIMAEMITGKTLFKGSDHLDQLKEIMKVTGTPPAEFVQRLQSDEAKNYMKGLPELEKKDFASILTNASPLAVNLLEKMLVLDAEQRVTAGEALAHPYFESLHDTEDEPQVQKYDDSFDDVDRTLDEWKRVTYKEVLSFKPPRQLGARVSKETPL

What is called IC50 is the concentration that gives 50% inhibition. Take `O=c1[nH]cc(Nc2ccccc2)cc1-c1ccccc1Br` [Compound 69, 3-(2-Bromophenyl)-5-(phenylamino)pyridin-2(1H)-one]: the remaining activity at 10 µM on MSK1 came to 100%; on CHK2 it was 101%; at JNK1 (10 μM) it was 102%; at p38a MAPK (10 μM), 19%. Also, the remaining activity at 1 µM on JNK1 (1 μM) is 115%; at p38a MAPK (1 μM) it was 59%; on p38b MAPK, 116%; at JNK2 it was 103%; at p38g MAPK, 103%; on ERK1, 120%. Besides, the remaining activity at 1 µM at p38d MAPK came to 112%; on ERK8, 144%; on ERK5, 101%; at CDK2-Cyclin A it was 119%; at ERK2, 109%; on CDK5, 103%. Besides, the remaining activity at 1 µM at JNK3 was determined as 115%. Besides, the IC50 at p38α MAPK (p38 alpha, read-out: Mean IC50) came out at 1460 nM; on p38α MAPK (read-out: IC50 toward p38α MAPK), 1500 ± 700 nM. Further, the “mean % residual activity” value in the assay on CK2 came out at 94%; in the assay on AMPK (hum) it was 95%; in the assay on ROCK 2, 105%.
